# Reference: paper PMC9862186 (International Journal of Molecular Sciences, 2023)
# Assays:
# in vivo = details: Wistar, rat
# Method: Each type of formulation was administered to a group of four rats.
# In particular, 4.2 mL of EU-CD formulation were administered to rats (500 mg/kg dose).
# In particular, 320 μL of EU-SL formulation were administered to rats (500 mg/kg dose).
# Free cinnamaldehyde (100 mg) was orally administered by gavage to rats kept fasting since 24 h. In particular, 95 μL of cinnamaldehyde (density = 1.05 g/mL) were dissolved in 905 μL of corn oil and administered to rats (400 mg/kg dose).
# The solid AC-GN formulation (14% w/w cinnamaldehyde) was mixed with palatable food in order to induce their oral intake by the rats kept fasting since 24 h. In particular, the rats assumed a dose of 100 mg of cinnamaldehyde (400 mg/kg) contained in 714 mg of AC-GN.
# After the administrations, blood (100 μL) and CSF samples (50 μL) were serially collected at fixed time points from each rat and treated as described above in order to quantify the compounds.
# In particular, all the AUC values referred to the bloodstream were calculated by the trapezoidal method within the last time point detected, and the remaining area was obtained as the ratio between the compound concentration detected at the last time point and the elimination constant (kel), which was obtained from the slope of the semilogarithmic plots (−slope × 2.3). The clearance (Cl) and distribution volume (Vd) values were calculated according to the non-compartmental model as the ratios “dose/AUC” and “Cl/kel”, respectively, where kel is the elimination constant obtained by the slope of semilogarithmic plot.
# PC12 cells = experiment: Dopamine release from neuronal differentiated PC12 cells (ELISA); type: cell-based, rat
# Method: PC12 cell line (RRID:CVCL_0481), derived from rat adrenal gland pheochromocytoma, was a kind gift from Dr Federica Brugnoli from the Department of Translational Medicine, University of Ferrara, Ferrara (Italy). The cells were grown in RPMI-1640 (HiGlutaXL) medium (Microtech, Naples, Italy), supplemented with 100 µg/mL streptomycin and 100 IU/mL penicillin, 10% horse serum (HS), and 5% fetal bovine serum (FBS). PC12 cells were gently removed from the 4 µg/cm^2 collagen IV-coated flask with a rubber scraper, transferred as cell suspension into a Falcon tube and resuspended through a sterile tip to avoid any clumping, then split into separate flasks twice weekly. To differentiate neuronal phenotypes, PC12 cells were seeded in 4 µg/cm^2 collagen IV-coated 12-well plates at a density of 5000 cells/well, and they were then left to adhere to the well for 24 h. […] All the proliferative and differentiated cultures were maintained at 37 °C in a humidified 5% CO2 atmosphere.
# PC12 cells differentiated to neuronal-like phenotype in collagen IV-treated 12-well plates, were first synchronized all to the same circadian phase and cell cycle by a serum shock (50% HS and 50% DMEM HiGlutaXL) for 2 h at 37 °C [49] to achieve a synchronous release of dopamine. Synchronization medium was then aspirated off, cells were washed with 3 × 1 mL and equilibrated for 15 min at 37 °C in 1 mL of Krebs Ringer HEPES (KRH) physiological buffer, following the recipe of Mount et al. (25 mM HEPES/Tris, pH 7.4, 1.2 mM KH2PO4, 125 mM NaCl, 4.8 mM KCl, 1.2 mM MgSO4, 2.2 mM CaCl2, 5.6 mM glucose, 1.0 mM ascorbic acid, 10 µM pargyline, 1.0 µM nomifensine). […] To remove cell debris, all samples of 1 mL incubation KRH at the end of treatments were centrifuged at 1000× g for 20 min at 4 °C and stored at −20 °C until dopamine levels were determined by ELISA assay.
# Dopamine levels in 1 mL incubation KRH buffer were detected by means of an ELISA assay, based on the […] ELISA principle for detection of dopamine, following manufacturer’s instructions (IBL International, Hamburg, Germany–catalog no: RE59161; purchased from Tecan Italia S.r.I, Milan, Italy). After the substrate reaction, the intensity of the developed color was proportional to the amount of dopamine, detected at 450 nm using a microplate reader spectrophotometer (Sunrise® Microplate Reader, Tecan Trading AG, Männedorf, Switzerland). Results of samples were determined directly using the standard curve. Results are presented as mean ± SE values of four independent experiments. Data were plotted and analyzed with GraphPad software (Prism, version 7.0, San Diego, CA, USA).
# rats = details: cited from earlier work
# [1] = rats, cited from earlier work
structure (smiles),measurement,setting,value
C=CCc1ccc(O)c(OC)c1 [Eugenol],Tmax: time of Cmax in the bloodstream,in vivo,10 min
same,bioavailability,"in vivo; po, F: absolute bioavailability, oral versus iv AUC normalized to dose",4%
same,effect on dopamine release over pre-treatment baseline,"PC12 cells; 25 µM, 5, 15, 30, 60 and 120 min, baseline 393 ± 12 pg/mL, p < 0.001 at 5, 15, 120 min, p < 0.05 at 30, 60 min",statistically significant increase
same,incubation time with the higher effect on dopamine release,"PC12 cells; 25 µM, time course 5, 15, 30, 60, 120 min, U-shaped curve",120 min
same,"concentration giving the lower effect on dopamine release, still significant vs. basal","PC12 cells; 0.5, 1, 2, 5 and 25 µM for 5 min, basal release 947 ± 102 pg/mL",5 µM
same,oral LD50,rats; oral,about 2 g/kg
same,intravenous doses inducing anesthetic effects without relevant side effects,"rats; rat, in vivo, iv",up to 60 mg/kg
same,t1/2 of the second elimination phase,[1]; iv eugenol,13 to 20 min
same,Cmax,[1]; oral 40 mg/kg,about 0.25 μg/mL
